Laboratory results: patent US8304446B2, “Compounds” (Glaxo Group Limited, priority 2009, dated 2012)
Where a name gives a salt, the structure may show the parent alone.

Key:
[1] = target: T1, CCR4 (Homo sapiens, UniProt P51679); experiment: [35S]-GTPγS SPA binding assay for CCR4 antagonist activity; format: biochemical; conditions: CCR4 expressing CHO membranes; human MDC at EC80; [35S]-GTPγS competition
T1 construct: expressed in transfected cells; host or cells: CHO cell membranes
T1 sequence (P51679 1-360): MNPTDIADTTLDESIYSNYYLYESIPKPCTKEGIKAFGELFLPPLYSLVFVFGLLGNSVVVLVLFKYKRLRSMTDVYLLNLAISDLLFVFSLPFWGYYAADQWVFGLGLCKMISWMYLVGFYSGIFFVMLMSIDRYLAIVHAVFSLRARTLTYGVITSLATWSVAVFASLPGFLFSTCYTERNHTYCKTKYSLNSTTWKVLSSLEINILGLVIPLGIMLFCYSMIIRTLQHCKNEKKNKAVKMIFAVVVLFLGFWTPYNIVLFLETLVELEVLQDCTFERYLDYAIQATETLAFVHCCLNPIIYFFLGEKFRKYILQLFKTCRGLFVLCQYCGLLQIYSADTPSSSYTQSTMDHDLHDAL
Description: [35S]-GTPγS SPA Binding Assays for CCR4 Antagonist Activity
Antagonist potency was determined by a radioligand [35S]-GTPγS competition assay. Briefly, CCR4 expressing CHO membranes were homogenised by passing through a 23G needle. These membranes were then adhered to WGA-coated Leadseeker SPA beads in assay buffer (20 mM HEPES, 10 mM MgCl2, 100 mM NaCl, 0.05% BSA, 40 ug/ml Saponin and pH adjusted to 7.4 using KOH 5M) to generate a 3 μg/well final assay concentration (FAC) membrane and 250 μg/well FAC bead, solution.
The bead/membrane/[35S]-GTPγS/Agonist suspension was dispensed into white Greiner polypropylene 384-well plates (45 μl/well), containing 0.5 μl of compound. […] Plates were then read on a Viewlux instrument and luminescence was then plotted as a percentage of the maximum inhibitional response elicited by an IC100 of a standard antagonist.

[2] = test system: CD4+ CCR4+ T cells; experiment: Chemokine stimulated increases in cellular F-actin content; format: cell-based; conditions: Homo sapiens, T-cell, 0.5 h; PBMC from normal volunteers; antagonist 30 min at 37° C. before agonist for 15 sec; F-actin content by flow cytometry; read-out: pA2 (converted)
Outline: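 Human PBMC from citrated volunteer blood, stained for CD4 and CCR4, were pre-incubated with antagonist or vehicle (0.1% DMSO) for 30 min at 37 °C, then stimulated with agonist for 15 s and formaldehyde-fixed. F-actin was stained with phalloidin and read by flow cytometry as CD4+CCR4+ MFI relative to CD4+CCR4− cells.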

SMILES	IC50 [1] [nM]	Kb [2] [nM]
COc1cccc2c1c(NS(=O)(=O)c1ccc(Cl)s1)nn2Cc1cccc(CNC(=O)C2CCOC2)c1 (stereo not drawn) [Example 35, N-[(3-{[3-{[(5-Chloro-2-thienyl)sulfonyl]amino}-4-(methyloxy)-1H-indazol-1-yl]methyl}phenyl)methyl]tetrahydro-3-furancarboxamide]	3.98 to 15.8	≤ 126
COc1cccc2c1c(NS(=O)(=O)c1ccc(Cl)s1)nn2Cc1cccc(CNC(=O)C(C)O)c1 (stereo not drawn) [Example 37, N-[(3-{[3-{[(5-Chloro-2-thienyl)sulfonyl]amino}-4-(methyloxy)-1H-indazol-1-yl]methyl}phenyl)methyl]-2-hydroxypropanamide]	3.98 to 15.8	≤ 126
COc1cccc2c1c(NS(=O)(=O)c1ccc(Cl)s1)nn2Cc1cccc(CNC(=O)C2CCOCC2)c1 [Example 43, N-[(3-{[3-{[(5-chloro-2-thienyl)sulfonyl]amino}-4-(methyloxy)-1H-indazol-1-yl]methyl}phenyl)methyl]tetrahydro-2H-pyran-4-carboxamide]	3.98 to 15.8	≤ 126
COc1cccc2c1c(NS(=O)(=O)c1ccc(Cl)s1)nn2Cc1cccc(CNC(=O)[C@@H](N)Cc2cnc[nH]2)c1 [Example 44, N-[(3-{[3-{[(5-Chloro-2-thienyl)sulfonyl]amino}-4-(methyloxy)-1H-indazol-1-yl]methyl}phenyl)methyl]-L-histidinamide]	3.98 to 15.8	≤ 126
COc1cccc2c1c(NS(=O)(=O)c1ccc(Cl)s1)nn2Cc1cccc(CNC(=O)[C@H](N)C(C)C)c1 [Example 48, N^1-[(3-{[3-{[(5-Chloro-2-thienyl)sulfonyl]amino}-4-(methyloxy)-1H-indazol-1-yl]methyl}phenyl)methyl]-D-valinamide]	3.98 to 15.8	≤ 126
COc1cccc2c1c(NS(=O)(=O)c1ccc(Cl)s1)nn2Cc1cccc(CNC(=O)[C@@H]2CCCCN2)c1 [Example 51, (2S)—N-[(3-{[3-{[(5-Chloro-2-thienyl)sulfonyl]amino}-4-(methyloxy)-1H-indazol-1-yl]methyl}phenyl)methyl]-2-piperidinecarboxamide trifluoroacetate]	3.98 to 15.8	≤ 126
COc1cccc2c1c(NS(=O)(=O)c1ccc(Cl)s1)nn2Cc1cccc(CNC(=O)[C@@H]2C[C@@H](F)CN2)c1 [Example 52, (4R)—N-[(3-{[3-{[(5-Chloro-2-thienyl)sulfonyl]amino}-4-(methyloxy)-1H-indazol-1-yl]methyl}phenyl)methyl]-4-fluoro-L-prolinamide trifluoroacetate]	3.98 to 15.8	≤ 126
COc1cccc2c1c(NS(=O)(=O)c1ccc(Cl)s1)nn2Cc1cccc(CNC(=O)[C@H]2CC(F)(F)CN2)c1 [Example 55, N-[(3-{[3-{[(5-Chloro-2-thienyl)sulfonyl]amino}-4-(methyloxy)-1H-indazol-1-yl]methyl}phenyl)methyl]-4,4-difluoro-D-prolinamide trifluoroacetate]	3.98 to 15.8	≤ 126
COc1cccc2c1c(NS(=O)(=O)c1ccc(Cl)s1)nn2Cc1cccc(CNC(=O)C(C)(C)O)c1 [Example 57, N-[(3-{[3-{[(5-Chloro-2-thienyl)sulfonyl]amino}-4-(methyloxy)-1H-indazol-1-yl]methyl}phenyl)methyl]-2-hydroxy-2-methylpropanamide]	3.98 to 15.8	≤ 126
NC(=O)c1cccc(Cn2nc(NS(=O)(=O)c3ccc(Cl)s3)c3c(O)cccc32)c1 [Example 70, 3-[(3-{[(5-Chloro-2-thienyl)sulfonyl]amino}-4-hydroxy-1H-indazol-1-yl)methyl]benzamide]	3.98 to 15.8	≤ 126
CN[C@H](C)C(=O)NCc1cccc(Cn2nc(NS(=O)(=O)c3ccc(Cl)s3)c3c(O)cccc32)c1 [Example 71, N^1-({3-[(3-{[(5-Chloro-2-thienyl)sulfonyl]amino}-4-hydroxy-1H-indazol-1-yl)methyl]phenyl}methyl)-N^2-methyl-D-alaninamide formic acid salt]	3.98 to 15.8	≤ 126
CC(=O)NCc1cccc(Cn2nc(NS(=O)(=O)c3ccc(Cl)s3)c3c(O)cccc32)c1 [Example 72, N-({3-[(3-{[(5-Chloro-2-thienyl)sulfonyl]amino}-4-hydroxy-1H-indazol-1-yl)methyl]phenyl}methyl)acetamide]	3.98 to 15.8	≤ 126
O=C(NCc1cccc(Cn2nc(NS(=O)(=O)c3ccc(Cl)s3)c3c(O)cccc32)c1)C1COCCN1 (stereo not drawn) [Example 73, N-({3-[(3-{[(5-Chloro-2-thienyl)sulfonyl]amino}-4-hydroxy-1H-indazol-1-yl)methyl]phenyl}methyl)-3-morpholinecarboxamide formate salt]	3.98 to 15.8	≤ 126

More lines, main results first:

IC50 [1] [nM]	SMILES	Kb [2] [nM]
3.98 to 15.8	COc1cccc2c1c(NS(=O)(=O)c1ccc(Cl)s1)nn2Cc1cccc(CNC(=O)C2CNCCN2)c1 (stereo not drawn) [Example 16, N-[(3-{[3-{[(5-chloro-2-thienyl)sulfonyl]amino}-4-(methyloxy)-1H-indazol-1-yl]methyl}phenyl)methyl]-2-piperazinecarboxamide hydrochloride]	≤ 126
3.98 to 15.8	CN[C@@H](C)C(=O)NCc1cccc(Cn2nc(NS(=O)(=O)c3ccc(Cl)s3)c3c(OC)cccc32)c1 [Example 17, N^1-[(3-{[3-{[(5-chloro-2-thienyl)sulfonyl]amino}-4-(methyloxy)-1H-indazol-1-yl]methyl}phenyl)methyl]-N^2-methyl-L-alaninamide trifluoroacetate]	≤ 126
3.98 to 15.8	COc1cccc2c1c(NS(=O)(=O)c1ccc(Cl)s1)nn2Cc1cccc(CNC(=O)[C@H](C)N)c1 [Example 18, N^1-[(3-{[3-{[(5-chloro-2-thienyl)sulfonyl]amino}-4-(methyloxy)-1H-indazol-1-yl]methyl}phenyl)methyl]-L-alaninamide trifluoroacetate]	≤ 126
3.98 to 15.8	COc1cccc2c1c(NS(=O)(=O)c1ccc(Cl)s1)nn2Cc1cccc(CNC(=O)CC(N)=O)c1 [Example 21, N-[(3-{[3-{[(5-chloro-2-thienyl)sulfonyl]amino}-4-(methyloxy)-1H-indazol-1-yl]methyl}phenyl)methyl]propanediamide]	≤ 126
3.98 to 15.8	COc1cccc2c1c(NS(=O)(=O)c1ccc(Cl)s1)nn2Cc1cccc(CNC(=O)C(C)CN)c1 (stereo not drawn) [Example 26, 3-Amino-N-[(3-{[3-{[(5-chloro-2-thienyl)sulfonyl]amino}-4-(methyloxy)-1H-indazol-1-yl]methyl}phenyl)methyl]-2-methylpropanamide trifluoroacetate]	≤ 126
3.98 to 15.8	COc1cccc2c1c(NS(=O)(=O)c1ccc(Cl)s1)nn2Cc1cccc(CNC(=O)[C@]2(C)CCCN2)c1 [Example 27, N-[(3-{[3-{[(5-chloro-2-thienyl)sulfonyl]amino}-4-(methyloxy)-1H-indazol-1-yl]methyl}phenyl)methyl]-2-methyl-L-prolinamide trifluoroacetate]	≤ 126
3.98 to 15.8	COc1cccc2c1c(NS(=O)(=O)c1ccc(Cl)s1)nn2Cc1cccc(CNC(=O)[C@@H]2C[C@H](F)CN2)c1 [Example 28, (4S)—N-[(3-{[3-{[(5-chloro-2-thienyl)sulfonyl]amino}-4-(methyloxy)-1H-indazol-1-yl]methyl}phenyl)methyl]-4-fluoro-L-prolinamide trifluoroacetate]	≤ 126
3.98 to 15.8	COc1cccc2c1c(NS(=O)(=O)c1ccc(Cl)s1)nn2Cc1cccc(CNC(=O)c2cn[nH]c2)c1 [Example 33, N-[(3-{[3-{[(5-Chloro-2-thienyl)sulfonyl]amino}-4-(methyloxy)-1H-indazol-1-yl]methyl}phenyl)methyl]-1H-pyrazole-4-carboxamide]	≤ 126
